Test results as given in patent US11249094B2, “Astrocyte traumatome and neurotrauma biomarkers” (THE REGENTS OF THE UNIVERSITY OF CALIFORNIA, priority 2015, dated 2022).

Test system: Trauma-released GFAP upper and lower BDPs
Assay: GFAP breakdown products in conditioned medium of severely stretched astrocyte cultures with protease inhibitors (immunoblot)
Format: cell-based, human
Conditions: 48 hour post-injury, DAKO anti-GFAP polyclonal antibody immunoblot
Protocol: Human astrocytes were isolated from 16-18 week donated fetal neocortical brain specimen, purified and then differentiated on deformable membranes (Wanner, 2012). Cell membrane wounding/compromise, mechanoporation (Barbee, 2005), was determined using Propidium iodide (PI) uptake in living cultures accompanied by nuclear shape assessment (middle picture, stained nuclei, Hoechst stained after fixation, with little pink dots, nucleoli that are PI-stained). Cell death was determined by PI uptake accompanied by condensed nuclei (pyknotic nuclei with compacted chromatin and bright Hoechst and PI stains). Significant percent of cell integrity compromise is shown 30 min post-injury (left graph) while significant cell death was present two days post-injury (bars on the right).
In order to capture the full range of signal intensity, signals from multiple exposures of immunoblots were densitometrically measured (optical densities) and scaled to match a single exposure.
Shown in FIG. 25 are two film exposures of GFAP, upper and lower breakdown products 48 hour post-injury in conditioned medium samples using the DAKO anti-GFAP polyclonal antibody. Severely stretched and unstretched cultures received either no drug, calpain inhibitor PD150606 (100 μM, “Cali”) or pan-caspase inhibitor Z-VAD FMK (8.8 μM, “Casi”). […]

Compound	Trauma-released GFAP upper and lower BDPs in conditioned medium (8.8 μM)	Trauma-released GFAP upper and lower BDPs in conditioned medium (100 μM)
Z-VAD FMK	reduced	–
O=C(O)/C(S)=C/c1ccc(I)cc1 [PD150606]	–	reduced
